Laboratory results as given in US20240415914A1, “Water Dispersible Cannabinoid Compositions” (priority 2021, published 2024).
Where two headings read alike, the source gives them in different places.

Legend:
[1] = type: physicochemical; conditions: stored at room temperature (21-25° C.)
Experimental: At each time period, 0.05 g of powder was dissolved in 10 ml-15 of ethanol, diluted to fall within the analytical range, and injected into the LCMSMS for analysis.

[2] = Stability of cannabinoid and Vitamin E components of Beverage 2 (AB Red) stored at 8° C. and 21-25° C., LCMSMS over 570 days
Experimental: The LCMSMS was calibrated for 0-50 ng/ml cannabinoids with the same resin material used in the preparation of the concentrates. At each time period, 100 μml of beverage was diluted with 10 ml of methanol and injected into the LCMSMS for analysis.

CCCCCc1cc(O)c(C/C=C(\C)CCC=C(C)C)c(O)c1 [CBG, cannabigerol]
Stability in Powder Concentrate (content by LCMSMS) ([1]; day 0): 1.1 mg/g powder
Stability in Powder Concentrate (content by LCMSMS) ([1]; day 1): 1.07 mg/g powder
Stability in Powder Concentrate (content by LCMSMS) ([1]; day 2): 1.08 mg/g powder
Stability in Powder Concentrate (content by LCMSMS) ([1]; day 3): 1.09 mg/g powder
Stability in Powder Concentrate (content by LCMSMS) ([1]; day 5): 1.11 mg/g powder
Stability in Powder Concentrate (content by LCMSMS) ([1]; day 8): 1.07 mg/g powder
Stability in Powder Concentrate (content by LCMSMS) ([1]; day 9): 1.09 mg/g powder
Stability in Powder Concentrate (content by LCMSMS) ([1]; day 10): 1.08 mg/g powder
Stability in Powder Concentrate (content by LCMSMS) ([1]; day 11): 1.14 mg/g powder
Stability in Powder Concentrate (content by LCMSMS) ([1]; day 12): 1.10 mg/g powder
Stability in Powder Concentrate (content by LCMSMS) ([1]; day 15): 1.08 mg/g powder
Stability in Powder Concentrate (content by LCMSMS) ([1]; day 16): 1.06 mg/g powder
Stability in Powder Concentrate (content by LCMSMS) ([1]; day 17): 1.06 mg/g powder
Stability in Powder Concentrate (content by LCMSMS) ([1]; day 18): 1.13 mg/g powder
Stability in Powder Concentrate (content by LCMSMS) ([1]; day 19): 1.14 mg/g powder
Stability in Powder Concentrate (content by LCMSMS) ([1]; day 22): 1.12 mg/g powder
Stability in Powder Concentrate (content by LCMSMS) ([1]; day 23): 1.13 mg/g powder
Stability in Powder Concentrate (content by LCMSMS) ([1]; day 24): 1.09 mg/g powder
Stability in Powder Concentrate (content by LCMSMS) ([1]; day 25): 1.13 mg/g powder
Stability in Powder Concentrate (content by LCMSMS) ([1]; day 26): 1.14 mg/g powder
Stability in Powder Concentrate (content by LCMSMS) ([1]; day 29): 1.10 mg/g powder
Stability in Powder Concentrate (content by LCMSMS) ([1]; day 30): 1.07 mg/g powder
Stability in Powder Concentrate (content by LCMSMS) ([1]; day 60): 1.1 mg/g powder
Stability in Powder Concentrate (content by LCMSMS) ([1]; day 90): 1.13 mg/g powder
Stability in Powder Concentrate (content by LCMSMS) ([1]; day 120): 1.09 mg/g powder
Stability in Powder Concentrate (content by LCMSMS) ([1]; day 150): 1.11 mg/g powder
Stability in Powder Concentrate (content by LCMSMS) ([1]; day 180): 1.07 mg/g powder
Stability in Powder Concentrate (content by LCMSMS) ([1]; day 210): 1.06 mg/g powder
Stability in Powder Concentrate (content by LCMSMS) ([1]; day 240): 1.12 mg/g powder
Stability in Powder Concentrate (content by LCMSMS) ([1]; day 270): 1.15 mg/g powder
Stability in Powder Concentrate (content by LCMSMS) ([1]; day 300): 1.09 mg/g powder
Stability in Powder Concentrate (content by LCMSMS) ([1]; day 330): 1.10 mg/g powder
Stability in Powder Concentrate (content by LCMSMS) ([1]; day 360): 1.09 mg/g powder
Stability in Powder Concentrate (content by LCMSMS) ([1]; day 390): 1.14 mg/g powder
Stability in Powder Concentrate (content by LCMSMS) ([1]; day 420): 1.11 mg/g powder
Stability in Powder Concentrate (content by LCMSMS) ([1]; day 450): 1.06 mg/g powder
Stability in Powder Concentrate (content by LCMSMS) ([1]; day 480): 1.12 mg/g powder
Stability in Powder Concentrate (content by LCMSMS) ([1]; day 510): 1.07 mg/g powder
Stability in Powder Concentrate (content by LCMSMS) ([1]; day 540): 1.07 mg/g powder
Stability in Powder Concentrate (content by LCMSMS) ([1]; day 570): 1.06 mg/g powder
Stability of Cannabinoids in AB Red ([2]; 8° C., 0 days): 4.75 µg/mL
Stability of Cannabinoids in AB Red ([2]; 8° C., 1 days): 4.62 µg/mL
Stability of Cannabinoids in AB Red ([2]; 8° C., 2 days): 4.79 µg/mL
Stability of Cannabinoids in AB Red ([2]; 8° C., 3 days): 4.70 µg/mL
Stability of Cannabinoids in AB Red ([2]; 8° C., 5 days): 4.75 µg/mL
Stability of Cannabinoids in AB Red ([2]; 8° C., 8 days): 4.76 µg/mL
Stability of Cannabinoids in AB Red ([2]; 8° C., 9 days): 4.72 µg/mL
Stability of Cannabinoids in AB Red ([2]; 8° C., 10 days): 4.68 µg/mL
Stability of Cannabinoids in AB Red ([2]; 8° C., 11 days): 4.77 µg/mL
Stability of Cannabinoids in AB Red ([2]; 8° C., 12 days): 4.64 µg/mL
Stability of Cannabinoids in AB Red ([2]; 8° C., 15 days): 4.68 µg/mL
Stability of Cannabinoids in AB Red ([2]; 8° C., 16 days): 4.65 µg/mL
Stability of Cannabinoids in AB Red ([2]; 8° C., 17 days): 4.77 µg/mL
Stability of Cannabinoids in AB Red ([2]; 8° C., 18 days): 4.67 µg/mL
Stability of Cannabinoids in AB Red ([2]; 8° C., 19 days): 4.71 µg/mL
Stability of Cannabinoids in AB Red ([2]; 8° C., 22 days): 4.70 µg/mL
Stability of Cannabinoids in AB Red ([2]; 8° C., 23 days): 4.66 µg/mL
Stability of Cannabinoids in AB Red ([2]; 8° C., 24 days): 4.65 µg/mL
Stability of Cannabinoids in AB Red ([2]; 8° C., 25 days): 4.73 µg/mL
Stability of Cannabinoids in AB Red ([2]; 8° C., 26 days): 4.68 µg/mL
Stability of Cannabinoids in AB Red ([2]; 8° C., 29 days): 4.80 µg/mL
Stability of Cannabinoids in AB Red ([2]; 8° C., 30 days): 4.72 µg/mL
Stability of Cannabinoids in AB Red ([2]; 8° C., 60 days): 4.70 µg/mL
Stability of Cannabinoids in AB Red ([2]; 8° C., 90 days): 4.73 µg/mL
Stability of Cannabinoids in AB Red ([2]; 8° C., 120 days): 4.68 µg/mL
Stability of Cannabinoids in AB Red ([2]; 8° C., 150 days): 4.67 µg/mL
Stability of Cannabinoids in AB Red ([2]; 8° C., 180 days): 4.65 µg/mL
Stability of Cannabinoids in AB Red ([2]; 8° C., 210 days): 4.60 µg/mL
Stability of Cannabinoids in AB Red ([2]; 8° C., 240 days): 4.68 µg/mL
Stability of Cannabinoids in AB Red ([2]; 8° C., 270 days): 4.66 µg/mL
Stability of Cannabinoids in AB Red ([2]; 8° C., 300 days): 4.70 µg/mL
Stability of Cannabinoids in AB Red ([2]; 8° C., 330 days): 4.60 µg/mL
Stability of Cannabinoids in AB Red ([2]; 8° C., 390 days): 4.55 µg/mL
Stability of Cannabinoids in AB Red ([2]; 8° C., 420 days): 4.58 µg/mL
Stability of Cannabinoids in AB Red ([2]; 8° C., 450 days): 4.54 µg/mL
Stability of Cannabinoids in AB Red ([2]; 8° C., 480 days): 4.51 µg/mL
Stability of Cannabinoids in AB Red ([2]; 8° C., 510 days): 4.40 µg/mL
Stability of Cannabinoids in AB Red ([2]; 8° C., 540 days): 4.42 µg/mL
Stability of Cannabinoids in AB Red ([2]; 8° C., 570 days): 4.37 µg/mL
Stability of Cannabinoids in AB Red ([2]; 21-25° C., 0 days): 4.75 µg/mL
Stability of Cannabinoids in AB Red ([2]; 21-25° C., 1 days): 4.57 µg/mL
Stability of Cannabinoids in AB Red ([2]; 21-25° C., 2 days): 4.61 µg/mL
Stability of Cannabinoids in AB Red ([2]; 21-25° C., 3 days): 4.71 µg/mL
Stability of Cannabinoids in AB Red ([2]; 21-25° C., 5 days): 4.66 µg/mL
Stability of Cannabinoids in AB Red ([2]; 21-25° C., 8 days): 4.66 µg/mL
Stability of Cannabinoids in AB Red ([2]; 21-25° C., 9 days): 4.74 µg/mL
Stability of Cannabinoids in AB Red ([2]; 21-25° C., 10 days): 4.59 µg/mL
Stability of Cannabinoids in AB Red ([2]; 21-25° C., 11 days): 4.72 µg/mL
Stability of Cannabinoids in AB Red ([2]; 21-25° C., 12 days): 4.62 µg/mL
Stability of Cannabinoids in AB Red ([2]; 21-25° C., 15 days): 4.80 µg/mL
Stability of Cannabinoids in AB Red ([2]; 21-25° C., 16 days): 4.75 µg/mL
Stability of Cannabinoids in AB Red ([2]; 21-25° C., 17 days): 4.63 µg/mL
Stability of Cannabinoids in AB Red ([2]; 21-25° C., 18 days): 4.70 µg/mL
Stability of Cannabinoids in AB Red ([2]; 21-25° C., 19 days): 4.66 µg/mL
Stability of Cannabinoids in AB Red ([2]; 21-25° C., 22 days): 4.71 µg/mL
Stability of Cannabinoids in AB Red ([2]; 21-25° C., 23 days): 4.67 µg/mL
Stability of Cannabinoids in AB Red ([2]; 21-25° C., 24 days): 4.78 µg/mL
Stability of Cannabinoids in AB Red ([2]; 21-25° C., 25 days): 4.56 µg/mL
Stability of Cannabinoids in AB Red ([2]; 21-25° C., 26 days): 4.77 µg/mL
Stability of Cannabinoids in AB Red ([2]; 21-25° C., 29 days): 4.78 µg/mL
Stability of Cannabinoids in AB Red ([2]; 21-25° C., 30 days): 4.73 µg/mL
Stability of Cannabinoids in AB Red ([2]; 21-25° C., 60 days): 4.61 µg/mL
Stability of Cannabinoids in AB Red ([2]; 21-25° C., 90 days): 4.55 µg/mL
Stability of Cannabinoids in AB Red ([2]; 21-25° C., 120 days): 4.61 µg/mL
Stability of Cannabinoids in AB Red ([2]; 21-25° C., 150 days): 4.65 µg/mL
Stability of Cannabinoids in AB Red ([2]; 21-25° C., 180 days): 4.53 µg/mL
Stability of Cannabinoids in AB Red ([2]; 21-25° C., 210 days): 4.63 µg/mL
Stability of Cannabinoids in AB Red ([2]; 21-25° C., 240 days): 4.56 µg/mL
Stability of Cannabinoids in AB Red ([2]; 21-25° C., 270 days): 4.68 µg/mL
Stability of Cannabinoids in AB Red ([2]; 21-25° C., 300 days): 4.47 µg/mL
Stability of Cannabinoids in AB Red ([2]; 21-25° C., 330 days): 4.57 µg/mL
Stability of Cannabinoids in AB Red ([2]; 21-25° C., 390 days): 4.57 µg/mL
Stability of Cannabinoids in AB Red ([2]; 21-25° C., 420 days): 4.51 µg/mL
Stability of Cannabinoids in AB Red ([2]; 21-25° C., 450 days): 4.63 µg/mL
Stability of Cannabinoids in AB Red ([2]; 21-25° C., 480 days): 4.44 µg/mL
Stability of Cannabinoids in AB Red ([2]; 21-25° C., 510 days): 4.37 µg/mL
Stability of Cannabinoids in AB Red ([2]; 21-25° C., 540 days): 4.49 µg/mL
Stability of Cannabinoids in AB Red ([2]; 21-25° C., 570 days): 4.36 µg/mL
